ChEMBL document CHEMBL3132851, “Achieving improved permeability by hydrogen bond donor modulation in a series of MGAT2 inhibitors” (Medchemcomm, 2013)
pIC50: −log10 of the molar value. Converted amounts (≈) assume the structure as drawn.

How the values were obtained:
[1] = Lipophilicity, log D of the compound at pH 7.4 after 30 mins by shake-flask method; conditions: buffer; for logD at 0.5 h: pH 7.4, logD; for logD: pH 7.4, 0.5 h, 0.5 h
[2] = biological target: 2-acylglycerol O-acyltransferase 2 (Homo sapiens, UniProt Q3SYC2); test: Inhibition of human MGAT2 by Rapidfire LCMS assay
Chain of 2-acylglycerol O-acyltransferase 2 (Q3SYC2 whole entry): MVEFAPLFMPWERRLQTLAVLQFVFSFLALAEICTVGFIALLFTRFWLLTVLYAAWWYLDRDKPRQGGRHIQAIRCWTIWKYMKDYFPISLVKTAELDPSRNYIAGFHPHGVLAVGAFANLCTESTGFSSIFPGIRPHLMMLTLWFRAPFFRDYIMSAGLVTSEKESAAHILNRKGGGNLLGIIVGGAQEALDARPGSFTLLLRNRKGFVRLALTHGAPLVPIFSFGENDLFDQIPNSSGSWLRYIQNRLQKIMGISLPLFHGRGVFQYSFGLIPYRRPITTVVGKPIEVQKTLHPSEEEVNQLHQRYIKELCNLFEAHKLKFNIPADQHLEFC

[3] = (§1) Apparent permeability of the compound from apical to basolateral side in human Caco2 cells; conditions: Caco-2, Papp
Cytochrome P450 2C9 = Cytochrome P450 2C9 (Homo sapiens, UniProt P11712); test: Inhibition of CYP2C9 (unknown origin); assay type: ADME
Chain of Cytochrome P450 2C9 (P11712 whole entry): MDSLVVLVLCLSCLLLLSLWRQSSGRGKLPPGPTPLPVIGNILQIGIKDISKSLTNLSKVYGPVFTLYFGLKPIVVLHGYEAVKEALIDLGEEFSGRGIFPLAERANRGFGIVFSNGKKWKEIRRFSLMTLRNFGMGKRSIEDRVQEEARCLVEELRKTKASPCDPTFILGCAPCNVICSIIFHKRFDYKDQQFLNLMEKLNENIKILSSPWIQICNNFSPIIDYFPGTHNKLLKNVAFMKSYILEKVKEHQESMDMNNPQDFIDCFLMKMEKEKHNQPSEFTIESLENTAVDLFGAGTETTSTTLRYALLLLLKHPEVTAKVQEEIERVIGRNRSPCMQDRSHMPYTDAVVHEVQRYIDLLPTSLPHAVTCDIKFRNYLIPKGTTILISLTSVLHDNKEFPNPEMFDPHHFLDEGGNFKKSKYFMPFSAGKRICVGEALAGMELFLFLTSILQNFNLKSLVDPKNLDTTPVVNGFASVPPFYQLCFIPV

[4] = Half life in rat at 1 mg/kg, iv; assay type: ADME, organism-based; parameters: dose 1 mg/kg, route intravenous; conditions: in vivo
[5] = Half life in mouse at 50 mg/kg, po; assay type: ADME, organism-based; parameters: dose 50 mg/kg, route oral; conditions: in vivo
[6] = Volume of distribution at steady state in mouse at 50 mg/kg, po and 1 mg/kg, iv; assay type: ADME, organism-based; conditions: in vivo, read-out: Vdss
[7] = Unbound fraction in rat plasma by equilibrium dialysis method; assay type: ADME, cell-free
Cytochrome P450 2D6 = Cytochrome P450 2D6 (Homo sapiens, UniProt P10635); test: Inhibition of CYP2D6 (unknown origin); assay type: ADME
Chain of Cytochrome P450 2D6 (P10635 whole entry): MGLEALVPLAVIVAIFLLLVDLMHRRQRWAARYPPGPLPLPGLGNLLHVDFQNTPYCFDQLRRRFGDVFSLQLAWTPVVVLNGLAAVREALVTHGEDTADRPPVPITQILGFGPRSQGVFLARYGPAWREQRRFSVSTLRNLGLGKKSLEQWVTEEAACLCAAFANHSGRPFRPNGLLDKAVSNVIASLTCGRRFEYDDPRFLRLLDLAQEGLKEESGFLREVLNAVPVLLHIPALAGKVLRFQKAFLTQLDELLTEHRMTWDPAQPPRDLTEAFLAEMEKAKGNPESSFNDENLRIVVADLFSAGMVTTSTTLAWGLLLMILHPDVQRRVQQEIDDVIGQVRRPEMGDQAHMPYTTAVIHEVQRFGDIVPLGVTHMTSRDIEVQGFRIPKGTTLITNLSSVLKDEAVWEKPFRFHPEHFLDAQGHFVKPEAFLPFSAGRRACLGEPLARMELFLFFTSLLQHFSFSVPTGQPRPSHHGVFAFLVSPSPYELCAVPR

[8] = Bioavailability in rat at 3 mg/kg, po and 1 mg/kg, iv; assay type: ADME, organism-based; conditions: in vivo
[9] = Unbound fraction in mouse plasma by equilibrium dialysis method; assay type: ADME, cell-free
[10] = Half life in mouse at 1 mg/kg, iv; assay type: ADME, organism-based; parameters: dose 1 mg/kg, route intravenous; conditions: in vivo
[11] = Unbound fraction in human plasma by equilibrium dialysis method; assay type: ADME, cell-free
[12] = Aqueous solubility of the compound in phosphate buffer at pH 7.4 after 24 hrs by LC-UVMS analysis; assay type: physicochemical
[13] = Half life in rat at 3 mg/kg, po; assay type: ADME, organism-based; parameters: dose 3 mg/kg, route oral; conditions: in vivo
[14] = Volume of distribution at steady state in rat at 3 mg/kg, po and 1 mg/kg, iv; assay type: ADME, organism-based; conditions: in vivo, read-out: Vdss
Cytochrome P450 2C19 = Cytochrome P450 2C19 (Homo sapiens, UniProt P33261); test: Inhibition of CYP2C19 (unknown origin); assay type: ADME
Chain of Cytochrome P450 2C19 (P33261 whole entry): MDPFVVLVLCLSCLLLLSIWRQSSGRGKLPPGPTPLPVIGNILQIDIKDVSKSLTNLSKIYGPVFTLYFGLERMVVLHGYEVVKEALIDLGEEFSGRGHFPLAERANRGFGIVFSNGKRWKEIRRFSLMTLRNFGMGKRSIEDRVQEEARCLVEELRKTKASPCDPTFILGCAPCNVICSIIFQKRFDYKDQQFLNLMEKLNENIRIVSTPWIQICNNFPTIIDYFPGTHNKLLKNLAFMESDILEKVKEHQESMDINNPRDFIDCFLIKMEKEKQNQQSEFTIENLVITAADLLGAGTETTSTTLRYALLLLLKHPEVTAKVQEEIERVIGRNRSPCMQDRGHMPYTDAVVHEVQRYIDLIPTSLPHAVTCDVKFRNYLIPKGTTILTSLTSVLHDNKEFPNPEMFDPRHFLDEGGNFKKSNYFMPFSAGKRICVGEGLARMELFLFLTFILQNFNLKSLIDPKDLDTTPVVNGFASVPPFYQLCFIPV

[15] = Plasma clearance in mouse at 50 mg/kg, po and 1 mg/kg, iv; assay type: ADME, organism-based
[16] = Plasma clearance in rat at 3 mg/kg, po and 1 mg/kg, iv; assay type: ADME, organism-based
Cytochrome P450 3A4 = Cytochrome P450 3A4 (Homo sapiens, UniProt P08684); test: Inhibition of CYP3A4 (unknown origin); assay type: ADME
Chain of Cytochrome P450 3A4 (P08684 whole entry): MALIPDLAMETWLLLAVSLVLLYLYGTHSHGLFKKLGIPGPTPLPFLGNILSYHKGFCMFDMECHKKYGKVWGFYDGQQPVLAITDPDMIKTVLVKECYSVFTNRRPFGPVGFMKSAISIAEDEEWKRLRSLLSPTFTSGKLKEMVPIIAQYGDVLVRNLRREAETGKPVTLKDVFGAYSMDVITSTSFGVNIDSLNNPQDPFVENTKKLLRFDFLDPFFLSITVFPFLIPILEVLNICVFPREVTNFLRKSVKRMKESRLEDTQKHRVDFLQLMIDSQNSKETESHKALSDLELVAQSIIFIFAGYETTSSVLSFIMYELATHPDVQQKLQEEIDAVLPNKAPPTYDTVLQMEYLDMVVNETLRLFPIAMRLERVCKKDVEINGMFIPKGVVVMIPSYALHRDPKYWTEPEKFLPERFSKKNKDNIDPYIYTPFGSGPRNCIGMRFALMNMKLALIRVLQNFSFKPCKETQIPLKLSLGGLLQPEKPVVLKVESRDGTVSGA

Cytochrome P450 1A2 = biological target: T1, Cytochrome P450 1A2 (Homo sapiens, UniProt P05177); test: Inhibition of CYP1A2 (unknown origin); assay type: ADME
T1 sequence (P05177 whole entry): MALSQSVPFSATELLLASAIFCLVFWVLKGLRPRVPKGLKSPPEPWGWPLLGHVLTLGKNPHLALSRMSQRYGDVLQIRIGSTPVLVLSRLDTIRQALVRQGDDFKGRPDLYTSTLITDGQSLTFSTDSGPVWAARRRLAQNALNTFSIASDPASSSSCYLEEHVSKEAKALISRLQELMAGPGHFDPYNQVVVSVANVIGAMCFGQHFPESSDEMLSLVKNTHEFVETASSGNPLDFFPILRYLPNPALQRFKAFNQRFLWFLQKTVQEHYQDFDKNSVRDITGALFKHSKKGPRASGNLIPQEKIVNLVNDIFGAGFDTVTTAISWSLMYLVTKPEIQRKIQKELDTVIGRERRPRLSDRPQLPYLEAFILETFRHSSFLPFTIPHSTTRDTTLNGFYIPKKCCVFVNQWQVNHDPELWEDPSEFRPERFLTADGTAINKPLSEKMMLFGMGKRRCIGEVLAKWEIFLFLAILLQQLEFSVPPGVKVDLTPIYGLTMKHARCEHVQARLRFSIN

[17] = Bioavailability in mouse at 50 mg/kg, po and 1 mg/kg, iv; assay type: ADME, organism-based; conditions: in vivo
Caco-2 = test: as §1; conditions: caco-2

| Compound | logD at 0.5 h [1] | pIC50 [2] | Papp A→B [3] | further results |
| --- | --- | --- | --- | --- |
| CC1(C)NC(=O)c2cc(S(=O)(=O)Nc3ccc(C(F)(F)F)cc3)ncc2NC1=O | 1.6 | 4.98 | 1 ×10⁻⁶ cm/s |  |
| CC1(C)NC(=O)c2cc(S(=O)(=O)Nc3ccc(C(F)(F)F)cc3)cnc2NC1=O | 1.8 | < 4.18 | 10 ×10⁻⁶ cm/s |  |
| COc1cc(S(=O)(=O)Nc2ccc(C(F)(F)F)cc2)cc2c1NC(=O)C(C)(C)NC2=O | 2.6 | 6.96 | 12 ×10⁻⁶ cm/s |  |
| CC1(C)NC(=O)c2cc(S(=O)(=O)Nc3ccc(C(F)(F)F)cc3)ccc2NC1=O | 2.6 | 6.04 | 6 ×10⁻⁶ cm/s |  |
| CC1(C)NC(=O)c2cc(S(=O)(=O)Nc3ccc(C(F)(F)F)cc3)c(F)cc2NC1=O |  | 5.83 |  |  |
| CC1(C)NC(=O)c2c(ccc(S(=O)(=O)Nc3ccc(C(F)(F)F)cc3)c2F)NC1=O | 2.4 | 4.39 | 4 ×10⁻⁶ cm/s |  |
| CCC1(C)NC(=O)c2cc(S(=O)(=O)Nc3ccc(F)cc3F)cc(Cl)c2NC1=O (stereo not drawn) | 1.9 | 8.05 | 35 ×10⁻⁶ cm/s | pIC50 (Cytochrome P450 2C9): < 4.52; half-life [4]: 1.3 h; half-life [5]: 1.2 h; Vd [6]: 0.5 L/kg; fraction unbound [7]: 0.03; pIC50 (Cytochrome P450 2D6): < 4.52; bioavailability [8]: 69%; fraction unbound [9]: 0.037; half-life [10]: 0.2 h; fraction unbound [11]: 0.017; solubility at 24 h [12]: 150 µM (≈ 66.6 µg/mL); half-life [13]: 2.4 h; Vd [14]: 0.4 L/kg; pIC50 (Cytochrome P450 2C19): 4.57; clearance [15]: 29 mL/min/kg; clearance [16]: 4.1 mL/min/kg; pIC50 (Cytochrome P450 3A4): < 4.52; pIC50 (Cytochrome P450 1A2): < 4.52; bioavailability [17]: 74% |
| CC1(C)NC(=O)c2cc(S(=O)(=O)Nc3ccc(C(F)(F)F)cc3)cc(F)c2NC1=O | 2.3 | 5.71 | 14 ×10⁻⁶ cm/s |  |
| COc1c(S(=O)(=O)Nc2ccc(C(F)(F)F)cc2)ccc2c1C(=O)NC(C)(C)C(=O)N2 | 1.9 | < 4.00 | 7 ×10⁻⁶ cm/s |  |
| CCC1(C)NC(=O)c2cc(S(=O)(=O)Nc3ccc(C)cc3C#N)cc(Cl)c2NC1=O (single isomer, unassigned; enantiomer 1) |  | 7.64 |  | logD [1]: 0.4; Papp (Caco-2): 14 ×10⁻⁶ cm/s |
| Cc1cc(S(=O)(=O)Nc2ccc(F)cc2F)cc2c1NC(=O)C(C)(C)NC2=O | 1.4 | 7.80 | 10 ×10⁻⁶ cm/s |  |
| CC1(C)NC(=O)c2cc(S(=O)(=O)Nc3ccc(F)cc3F)ccc2NC1=O | 1.3 | 7.24 | 5 ×10⁻⁶ cm/s |  |
| CC[C@]1(C)NC(=O)c2cc(S(=O)(=O)Nc3ccc(F)cc3F)ccc2NC1=O | 1.7 |  | 8 ×10⁻⁶ cm/s |  |
| CC[C@]1(C)NC(=O)c2cc(S(=O)(=O)Nc3ccc(C(F)(F)F)cc3F)ccc2NC1=O | 1.7 | 7.92 | 9 ×10⁻⁶ cm/s |  |
| Cc1cc(S(=O)(=O)Nc2ccc(C(F)(F)F)cc2)cc2c1NC(=O)C(C)(C)NC2=O | 2.6 | 7.28 | 7 ×10⁻⁶ cm/s |  |
| CCc1cc(S(=O)(=O)Nc2ccc(F)cc2F)cc2c1NC(=O)C(C)(CC)NC2=O (racemic) | 2.1 | 8.40 | 24 ×10⁻⁶ cm/s |  |
| CCC1(C)NC(=O)c2cc(S(=O)(=O)Nc3ccc(F)cc3F)cc(OC)c2NC1=O (racemic) | 1.8 | 8.00 | 22 ×10⁻⁶ cm/s |  |
| CCC1(C)NC(=O)c2cc(S(=O)(=O)Nc3ccc(C)cc3C#N)cc(Cl)c2NC1=O (single isomer, unassigned) | 0.6 | 6.93 | 11 ×10⁻⁶ cm/s |  |
| Cc1cc2c(cc1S(=O)(=O)Nc1ccc(C(F)(F)F)cc1)C(=O)NC(C)(C)C(=O)N2 |  | 4.87 |  |  |
| CC1(C)NC(=O)c2cc(S(=O)(=O)Nc3ccc(F)cc3F)cc(C#N)c2NC1=O |  | 6.39 | 3 ×10⁻⁶ cm/s |  |
| COc1cc2c(cc1S(=O)(=O)Nc1ccc(C(F)(F)F)cc1)C(=O)NC(C)(C)C(=O)N2 | 2.8 | 5.12 | 1 ×10⁻⁶ cm/s |  |
| CCC1(C)NC(=O)c2cc(S(=O)(=O)Nc3ccc(F)cc3F)cc(C)c2NC1=O (single isomer, unassigned) |  | 8.15 |  | logD [1]: 6.5; Papp (Caco-2): 9 ×10⁻⁶ cm/s |
| Cc1c(S(=O)(=O)Nc2ccc(C(F)(F)F)cc2)ccc2c1C(=O)NC(C)(C)C(=O)N2 |  | 4.87 | 9 ×10⁻⁶ cm/s |  |
| CCC1(C)NC(=O)c2cc(S(=O)(=O)Nc3ccc(C(F)(F)F)cc3OC)cc(Cl)c2NC1=O (stereo not drawn) | 3 | 8.15 | 58 ×10⁻⁶ cm/s |  |
| CC1(C)NC(=O)c2cc(S(=O)(=O)Nc3ccc(F)cc3F)cc(C(F)(F)F)c2NC1=O | 1.9 | 7.52 | 46 ×10⁻⁶ cm/s |  |
| CCC1(C)NC(=O)c2cc(S(=O)(=O)Nc3ccc(C(F)(F)F)cc3F)cc(Cl)c2NC1=O (stereo not drawn) | 1.8 | 7.92 | 29 ×10⁻⁶ cm/s |  |
| CCC1(C)NC(=O)c2cc(S(=O)(=O)Nc3ccc(F)cc3F)cc(C)c2NC1=O (single isomer, unassigned; enantiomer 2) | 5.4 | 7.21 | 14 ×10⁻⁶ cm/s |  |
